According to ChEMBL document CHEMBL3112474, “Discovery of substituted lactams as novel dual orexin receptor antagonists. Synthesis, preliminary structure-activity relationship studies and efforts towards improved metabolic stability and pharmacokinetic properties. Part 1” (Bioorg Med Chem Lett, 2014):

What was measured:
[1] = Ratio of drug level in brain to plasma in Wistar rat at 100 mg/kg, po after 3 hrs; format: ADME, organism-based; parameters: dose 100 mg/kg, route oral; conditions: read-out: BPR
[2] = Intrinsic clearance in human liver microsomes at 1 uM; format: ADME; conditions: read-out: CLH
MDR1 [3] = assay: Apparent passive permeability across apical to basolateral side in MDCK cells expressing human MDR1; format: ADME, cell-based, Canis lupus familiaris; conditions: dog
Cerebrospinal fluid = assay: Drug level in Wistar rat cerebrospinal fluid at 100 mg/kg, po; format: ADME, organism-based; parameters: dose 100 mg/kg, route oral; conditions: in vivo
[4] = Drug level in Wistar rat brain at 100 mg/kg, po after 3 hrs; format: ADME, organism-based; parameters: dose 100 mg/kg, route oral; conditions: read-out: Drug uptake
[5] = Intrinsic clearance in rat liver microsomes at 1 uM; format: ADME; conditions: read-out: CLH
MDR1 [6] = assay: Apparent passive permeability across basolateral to apical side in MDCK cells expressing human MDR1; format: ADME, cell-based, Canis lupus familiaris; conditions: dog
[7] = Plasma concentration in Wistar rat at 100 mg/kg, po after 3 hrs; format: ADME, organism-based; parameters: dose 100 mg/kg, route oral
Cytochrome P450 2D6 = Cytochrome P450 2D6 (Homo sapiens, UniProt P10635); assay: Inhibition of CYP2D6 (unknown origin); format: ADME
Cytochrome P450 2D6, sequence (P10635 whole entry): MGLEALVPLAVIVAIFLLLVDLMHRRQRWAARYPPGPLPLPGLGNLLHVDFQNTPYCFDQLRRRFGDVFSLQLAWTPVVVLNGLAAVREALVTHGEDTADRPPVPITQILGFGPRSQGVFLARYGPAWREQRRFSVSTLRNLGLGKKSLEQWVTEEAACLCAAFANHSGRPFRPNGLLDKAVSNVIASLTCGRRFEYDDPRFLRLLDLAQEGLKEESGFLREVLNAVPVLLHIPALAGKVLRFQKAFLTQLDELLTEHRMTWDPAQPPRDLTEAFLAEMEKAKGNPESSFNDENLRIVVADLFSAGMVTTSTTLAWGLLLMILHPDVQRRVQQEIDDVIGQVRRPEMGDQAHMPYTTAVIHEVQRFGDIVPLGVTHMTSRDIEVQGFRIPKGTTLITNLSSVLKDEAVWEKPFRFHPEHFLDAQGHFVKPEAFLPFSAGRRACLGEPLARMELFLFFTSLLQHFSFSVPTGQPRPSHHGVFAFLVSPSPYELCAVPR

Cytochrome P450 2C9 = Cytochrome P450 2C9 (Homo sapiens, UniProt P11712); assay: Inhibition of CYP2C9 (unknown origin); format: ADME
Cytochrome P450 2C9, sequence (P11712 whole entry): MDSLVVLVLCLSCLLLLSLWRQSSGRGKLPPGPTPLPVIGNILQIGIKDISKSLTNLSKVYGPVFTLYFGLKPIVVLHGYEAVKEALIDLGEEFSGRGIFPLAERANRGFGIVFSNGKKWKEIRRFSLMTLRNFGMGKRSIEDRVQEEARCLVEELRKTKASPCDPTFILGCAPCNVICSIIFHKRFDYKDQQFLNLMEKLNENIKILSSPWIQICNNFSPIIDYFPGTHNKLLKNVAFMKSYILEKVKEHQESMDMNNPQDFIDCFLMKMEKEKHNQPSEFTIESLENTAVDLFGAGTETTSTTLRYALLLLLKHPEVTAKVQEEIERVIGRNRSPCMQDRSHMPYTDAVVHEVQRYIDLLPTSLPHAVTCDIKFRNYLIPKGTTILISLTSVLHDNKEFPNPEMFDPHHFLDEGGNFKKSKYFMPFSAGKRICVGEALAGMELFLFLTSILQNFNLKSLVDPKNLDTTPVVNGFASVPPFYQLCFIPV

Cytochrome P450 3A4 = Cytochrome P450 3A4 (Homo sapiens, UniProt P08684); assay: Inhibition of CYP3A4 (unknown origin); format: ADME
Cytochrome P450 3A4, sequence (P08684 whole entry): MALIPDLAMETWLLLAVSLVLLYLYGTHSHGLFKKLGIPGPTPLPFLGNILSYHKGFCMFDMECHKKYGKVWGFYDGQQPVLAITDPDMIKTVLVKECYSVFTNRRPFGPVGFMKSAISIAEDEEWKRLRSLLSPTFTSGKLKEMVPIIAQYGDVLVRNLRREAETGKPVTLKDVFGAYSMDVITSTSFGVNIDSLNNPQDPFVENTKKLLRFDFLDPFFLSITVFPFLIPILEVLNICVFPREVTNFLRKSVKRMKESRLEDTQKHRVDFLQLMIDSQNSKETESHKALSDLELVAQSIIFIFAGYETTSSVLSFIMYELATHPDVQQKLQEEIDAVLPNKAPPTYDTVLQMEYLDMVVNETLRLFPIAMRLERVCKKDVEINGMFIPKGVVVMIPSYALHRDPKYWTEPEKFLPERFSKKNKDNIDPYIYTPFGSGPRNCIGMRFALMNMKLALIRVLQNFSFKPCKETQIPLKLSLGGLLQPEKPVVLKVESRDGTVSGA

[8] = biological target: T1, Orexin/Hypocretin receptor type 1 (Homo sapiens, UniProt O43613); assay: Antagonist activity at human orexin 1 receptor expressed in CHO cells assessed as inhibition of orexin-A-induced calcium mobilization by FLIPR assay; format: functional, cell-based
T1 sequence (O43613 whole entry): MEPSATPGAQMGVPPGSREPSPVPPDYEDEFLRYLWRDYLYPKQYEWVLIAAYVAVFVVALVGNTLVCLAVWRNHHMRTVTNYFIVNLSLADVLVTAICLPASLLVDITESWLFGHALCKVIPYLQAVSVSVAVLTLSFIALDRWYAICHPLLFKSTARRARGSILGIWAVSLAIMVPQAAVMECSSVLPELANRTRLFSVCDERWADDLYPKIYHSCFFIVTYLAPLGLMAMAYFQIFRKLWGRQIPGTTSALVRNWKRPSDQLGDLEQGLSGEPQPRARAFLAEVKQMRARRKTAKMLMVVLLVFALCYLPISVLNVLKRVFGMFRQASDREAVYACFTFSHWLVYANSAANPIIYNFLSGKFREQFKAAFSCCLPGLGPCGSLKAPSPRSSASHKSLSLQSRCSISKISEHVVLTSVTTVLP

Orexin receptor type 2 = biological target: T2, Orexin receptor type 2 (Homo sapiens, UniProt O43614); assay: Antagonist activity at human orexin 2 receptor expressed in CHO cells assessed as inhibition of orexin-A-induced calcium mobilization by FLIPR assay; format: functional, cell-based
T2 sequence (O43614 whole entry): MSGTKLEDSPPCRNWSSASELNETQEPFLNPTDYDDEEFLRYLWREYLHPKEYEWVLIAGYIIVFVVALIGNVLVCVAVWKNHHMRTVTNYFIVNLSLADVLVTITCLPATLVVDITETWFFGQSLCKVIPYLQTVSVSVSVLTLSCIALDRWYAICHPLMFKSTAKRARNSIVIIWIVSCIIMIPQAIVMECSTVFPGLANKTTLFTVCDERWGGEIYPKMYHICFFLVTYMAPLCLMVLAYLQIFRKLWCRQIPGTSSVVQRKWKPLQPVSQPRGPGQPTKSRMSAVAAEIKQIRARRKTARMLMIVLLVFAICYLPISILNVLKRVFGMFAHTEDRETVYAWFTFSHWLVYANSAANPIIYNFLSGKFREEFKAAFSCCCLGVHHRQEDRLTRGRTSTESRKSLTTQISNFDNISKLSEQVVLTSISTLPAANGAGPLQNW

[9] = Half life in human liver microsomes; format: ADME

SMILES | microsomal CLint at 1 µM [2] [µL/min/mg] | IC50 [8] [nM] | IC50 (Orexin receptor type 2) [nM] | further results
COc1cccc(OC)c1C1CCCC(=O)N1Cc1ccc2ccccc2n1 (single isomer, unassigned) | > 1250 | – | – | Kp at 3 h [1]: 0.8; Papp A→B (MDR1 [3]): 24.2 ×10⁻⁶ cm/s; Drug uptake (Cerebrospinal fluid): 23 ng/mL; concentration at 3 h [4]: 108 ng/g; microsomal CLint at 1 µM [5]: > 1250 µL/min/mg; Papp B→A (MDR1 [6]): 63.2 ×10⁻⁶ cm/s; concentration at 3 h [7]: 140 ng/mL; IC50 (Cytochrome P450 2D6): > 30000 nM; IC50 (Cytochrome P450 2C9): > 30000 nM; IC50 (Cytochrome P450 3A4): > 30000 nM
COc1cccc(OC)c1C1CCCC(=O)N1Cc1ccnc(-c2nccs2)c1 (racemic) | > 1250 | – | – | –
COc1cccc(OC)c1C1CCCC(=O)N1Cc1ccnc(-c2ccccc2)c1 (racemic) | > 1250 | – | – | –
COc1cccc(OC)c1C1CCCC(=O)N1Cc1ccc(Oc2ccccc2)cc1 (racemic) | – | 531 | 29 | –
COc1cc(OC)c(C2CCCCN2Cc2ccc(OC(F)(F)F)cc2)c(OC)c1 (racemic) | – | 1590 | > 10000 | –
COc1cccc(F)c1C1CCCC(=O)N1Cc1ccc(OC(F)(F)F)cc1 (racemic) | – | – | 161 | –
COc1cccc(OC)c1C1CCCC(=O)N1c1ccccc1 (racemic) | – | > 10000 | > 10000 | –
COc1cccc(OC)c1C1CCCC(=O)N1CCc1ccccc1 (racemic) | – | 9700 | 1330 | –
COc1cccc(OC)c1C1COC(=O)N1Cc1ccc(OC(F)(F)F)cc1 (racemic) | – | 2650 | 771 | –
COc1cccc(OC)c1C1CC(C)C(=O)N1Cc1ccc2oc3ccccc3c2c1 (mixture of isomers) | 260 | 4 | 9 | –
COc1cccc(OC)c1C1C2CC2C(=O)N1Cc1ccc(OC(F)(F)F)cc1 (mixture of isomers) | – | 1150 | 1070 | –
COc1cccc(OC)c1C1SCC(=O)N1Cc1ccc(OC(F)(F)F)cc1 (racemic) | – | 155 | 16 | –
COc1ccnc(OC)c1C1CCCC(=O)N1Cc1ccc2oc3ccccc3c2c1 (racemic) | 1130 | – | – | –
COc1cccc(OC)c1C1CCCC(=O)N1C(C)c1ccc(OC(F)(F)F)cc1 (mixture of isomers) | > 1250 | 142 | 21 | –
COc1cccc(OC)c1C1c2ccccc2C(=O)N1Cc1ccc(OC(F)(F)F)cc1 (racemic) | – | > 10000 | > 10000 | –
COc1cccc(OC)c1C1CCCC(=O)N1Cc1cnc2ccccc2c1 (racemic) | – | 675 | 217 | –
COc1cccc(OC)c1C1COCC(=O)N1Cc1ccc(OC(F)(F)F)cc1 (racemic) | > 1250 | – | – | –
COc1cccc(OC)c1C1CCCC(=O)N1Cc1cccc(-c2ccccc2)c1 (racemic) | > 1250 | 65 | 28 | –
COc1cccc(OC)c1C1CCC(=O)N1Cc1ccc(OC(F)(F)F)cc1 (racemic) | 670 | – | – | –
COc1cccc(OC)c1C1CCCC(=O)N1Cc1ccc2sc(C)nc2c1 (racemic) | 860 | 32 | 12 | –
COc1cccc(OC)c1C1CCCCC(=O)N1Cc1ccc(OC(F)(F)F)cc1 (racemic) | > 1250 | 264 | 74 | –
COc1cccc(OC)c1C1CCCC(=O)N1Cc1ccccc1 (racemic) | – | 2420 | 416 | –
COc1ccc2nc(C)oc2c1C1CCCC(=O)N1Cc1cccc(-c2csc(C)n2)c1 (racemic) | > 1250 | 17 | 65 | –
COc1cccc(OC)c1C1CCCC(=O)N1Cc1csc(-c2ccccc2)n1 (racemic) | > 1250 | 45 | 6 | –
COc1ccc2nc(C)oc2c1C1CCCC(=O)N1Cc1cccc(-c2ccccc2)c1 (racemic) | > 1250 | 54 | 93 | –
COc1cccc(OC)c1C1CCCC(=O)N1Cc1ccc2ccccc2n1 (racemic) | – | 49 | – | –
COc1cccc(OC)c1C1CCCC(=O)N1Cc1ccc(OC(F)(F)F)cc1 (racemic) | > 1250 | 284 | 25 | Kp at 3 h [1]: 1.6; concentration at 3 h [4]: 153 ng/g; concentration at 3 h [7]: 94 ng/mL

Second part, led by results:

microsomal CLint at 1 µM [2] [µL/min/mg] | SMILES | IC50 [8] [nM] | IC50 (Orexin receptor type 2) [nM] | further results
88 | COc1cccc(OC)c1C1CC(C)C(=O)N1Cc1ccc2sc(C)nc2c1 (mixture of isomers) | – | – | –
> 1250 | COc1cccc(OC)c1C1CCCC(=O)N1Cc1cccc(-n2nccn2)c1 (racemic) | – | – | –
257 | COc1cccc(OC)c1[C@H]1C[C@H](C)C(=O)N1Cc1ccc(OC(F)(F)F)cc1 (racemic) | – | – | –
> 1250 | COc1cccc(OC)c1C1CCCC(=O)N1Cc1ccnc(-n2cccn2)c1 (racemic) | – | – | –
> 1250 | COc1cccc(OC)c1C1CCCC(=O)N1Cc1cccc(-c2ncccn2)c1 (configuration not stated) | – | – | –
> 1250 | COc1cccc(OC)c1C1CCCC(=O)N1Cc1ccc2ccccc2c1 (racemic) | – | – | half-life [9]: < 1 min
> 1250 | COc1cccc(OC)c1C1CCCC(=O)N1Cc1cccc(-c2csc(C)n2)c1 (racemic) | – | – | –
> 1250 | COc1cccc(OC)c1C1CCCC(=O)N1Cc1cccc(-c2ccccn2)c1 (racemic) | – | – | –
645 | COc1cccc(OC)c1C1CC(C)CC(=O)N1Cc1ccc(OC(F)(F)F)cc1 (mixture of isomers) | – | – | –
912 | COc1ccnc(OC)c1C1CCCC(=O)N1Cc1csc(-c2ccccc2)n1 (racemic) | – | – | –
649 | COc1cccc(OC)c1C1CCC(C)C(=O)N1Cc1ccc(OC(F)(F)F)cc1 (mixture of isomers) | – | – | –
1200 | COc1cccc(OC)c1C1CCCC(=O)N1Cc1ccc2oc3ccccc3c2c1 (racemic) | – | – | –
> 1250 | COc1cccc(OC)c1C1CCCC(=O)N1Cc1cccc(-c2ccccc2)n1 (racemic) | – | – | –
